“And” between values parts separate entries of the source, which are not always exact repeats. Equal entries are not always repeated. Where two headings read alike, the source gives them in different places.
How the values were obtained:
[1] = Cellular toxicity (CellTiter-Glo) in HepG2.2.15 cells; type: cell-based; conditions: human
Description: Cellular assays method 1: Cellular assays: The HBV producing cell line HepG2.2.15 was cultured in DMEM/F12 containing 10% fetal bovine serum (FBS), 100 U/ml penicillin and 100 μg/ml streptomycin (Invitrogen). Compounds of the disclosure in DMSO was added into the culture medium when cell reached 100% confluence. The final concentration of DMSO was adjusted to 0.5%. Culture medium was replaced in two days and the cell was cultured for additional two days in the presence of compound. HBsAg inhibition in culture medium was then detected with AlphaLisa assay using anti-HBsAg antibodies of 10-H05H and 60C-CR2100RB from Fitzgerald Internantional. To examine the change of nucleic acid, total RNA was extracted with Trizol reagents and resolved in glyoxal agarose gel. HBV RNA blotted onto nitrocellulose membrane was measured with P32 labeled ribo-probe. Reduction and shortening of viral RNA indicates on target effect of the tested compound. […] HepG2.2.15 cells were first seeded in 96-well plate (Corning, Cat #: CLS3595) at density of 10,000 cells/well in 100 ul DMEM/F12 medium containing 10% FBS. When cells reached 100% confluence, treatment with compounds of the disclosure was initiated, and cells were cultured in the way as described for HBsAg inhibition study. Four days post drug treatment, 100 ul of CellTiter-Glo reagents (Promega, Cat #G7570) were added into each well and the mixture was incubated at 23° C. for 12 minutes, followed by the reading of luminescent signal in Tecan's Infinite 200 PRO. Compound IC50 on HBsAg and CC50 on cell viability were calculated using Graphpad prism. The IC50 and CC50 are defined as the compound concentration (or conditioned media log dilution) at which HBsAg secretion and cytotoxicity, respectively, are reduced by 50% compared to the no drug control.
Cellular assays method 2: HepG2.2.15 cells were seeded in duplicate into white, 96-well plates at 1.5×10^4 cells/well. The cells were treated with a 3-fold serial dilution series of the compounds in DMSO. The final DMSO concentration in all wells was 1%, and DMSO was used as no drug control. The HBsAg chemiluminescence immunoassay (CLIA) kit (Autobio Diagnostics Co., Zhengzhou, China) was used to measure the levels of secreted HBV antigens semi-quantitatively. For the detection, 50 μL/well culture supernatant was used and the procedure conducted as directed by manufacturer's instructions. The cytotoxicity was measured using CellTiter-Glo (Promega, Madison, WI, USA, catalogue no. G7571). Dose-response curves were generated and the IC50 and CC50 values were calculated using Graphpad prism. The IC50 and CC50 are defined as the compound concentration (or conditioned media log dilution) at which HBsAg secrection and cytotoxicity, respectively, are reduced by 50% compared to the no drug control.

[2] = Pharmacokinetics after 3 mg/kg IV administration, plasma; type: in vivo, CD1 mice
Description: Protocol for pharmacokinetic and tissue distribution studies. The pharmacokinetics of the compounds was studied in CD1 mice after intravenous (IV) and oral gavage (PO) administration. Mouse PK studies was conducted at 3 mg/kg (IV) and 8 mg/kg (PO). Plasma samples obtained from dosed animals, at ten time points, including 5, 15 and 30 minutes and 1, 1.5, 2, 4, 6, 8 and 24 hr post-dose for processing to plasma, were prepared for analysis by means of a single step protein precipitation technique, by adding 200 μL of acetonitrile containing an IS mixture (labetalol, imipramine and diclofenac) to 50 μL aliquots of individual subject samples. Samples were mixed by vortex for homogeneity and then subjected to centrifugation at 4000 rpm for 10 min. The supernatant (200 μL) was collected and injected into the LC-MS/MS for analysis. Pharmacokinetic parameters will be calculated using established non-compartmental methods. The liver distribution of the compounds was studied in the PO group and liver tissues were collected at each time point after PO administration. Accurately weighed whole liver tissues were collected in a 50 mL tube, and 3 volumes per weight of water will be added. Tissue samples were homogenized and 50 μL of the homogenates will be processed along with plasma samples as described above.

[3] = CD1, mouse, plasma, iv, 3 mg/kg, individual mice
[4] = CD1, mouse, plasma, iv, 3 mg/kg, mean

## COc1cc2c(cc1OCCCCCCC(=O)O)C[C@@H](C(C)C)n1cc(C(=O)O)c(=O)cc1-2 [Example 6, (S)-9-((6-carboxyhexyl)oxy)-6-isopropyl-10-methoxy-2-oxo-6,7-dihydro-2H-pyrido[2,1-a]isoquinoline-3-carboxylic acid]
[1]
  CC50: > 10 µM
[2]; 5 min, individual mice
  Plasma concentration: 979 ng/mL and 689 ng/mL
[2]; 0.25 h, individual mice
  Plasma concentration: 103 ng/mL and 73.0 ng/mL
[2]; 0.5 h, individual mice
  Plasma concentration: 31.7 ng/mL and 24.9 ng/mL
[2]; 1 h, individual mice
  Plasma concentration: 8.52 ng/mL and 6.79 ng/mL
[2]; 2 h, individual mice
  Plasma concentration: 5.61 ng/mL and 5.51 ng/mL and 2.14 ng/mL
[2]; 4 h, individual mice
  Plasma concentration: 1.69 ng/mL and BLOQ
[2]; 8 h, individual mice
  Plasma concentration: BLOQ
[2]; 24 h, individual mice
  Plasma concentration: BLOQ
[2]; CD1, mouse, plasma, intravenous, 3 mg/kg, 5 min, individual mice, read-out: Plasma concentration
  concentration at 5 min: 0.817 µg/mL
[2]; CD1, mouse, plasma, intravenous, 3 mg/kg, 5 min, mean, read-out: Mean plasma concentration
  concentration at 5 min: 0.828 µg/mL
[2]; CD1, mouse, plasma, intravenous, 3 mg/kg, 0.25 h, individual mice, read-out: Plasma concentration
  concentration at 0.25 h: 0.0823 µg/mL
[2]; CD1, mouse, plasma, intravenous, 3 mg/kg, 0.25 h, mean, read-out: Mean plasma concentration
  concentration at 0.25 h: 0.086 µg/mL
[2]; CD1, mouse, plasma, intravenous, 3 mg/kg, 0.5 h, individual mice, read-out: Plasma concentration
  concentration at 0.5 h: 0.0328 µg/mL
[2]; CD1, mouse, plasma, intravenous, 3 mg/kg, 0.5 h, mean, read-out: Mean plasma concentration
  concentration at 0.5 h: 0.0298 µg/mL
[2]; CD1, mouse, plasma, intravenous, 3 mg/kg, 1 h, individual mice, read-out: Plasma concentration
  concentration at 1 h: 0.0114 µg/mL
[2]; CD1, mouse, plasma, intravenous, 3 mg/kg, 1 h, mean, read-out: Mean plasma concentration
  concentration at 1 h: 0.0089 µg/mL
[2]; CD1, mouse, plasma, intravenous, 3 mg/kg, 2 h, mean
  concentration at 2 h: 0.00442 µg/mL
[2]; CD1, mouse, plasma, intravenous, 3 mg/kg, 4 h, individual mice, read-out: Plasma concentration
  concentration at 4 h: 0.00185 µg/mL
[2]; CD1, mouse, plasma, intravenous, 3 mg/kg, 4 h, mean, read-out: Mean plasma concentration
  concentration at 4 h: 0.00177 µg/mL
[2]; CD1, mouse, plasma, intravenous, 3 mg/kg, 8 h, individual mice
  concentration at 8 h: 0.00108 µg/mL
[2]; [3]
  AUC(0-inf): 0.268 µg·h/mL
  AUC(0-t): 0.263 µg·h/mL
[2]; CD1, mouse, plasma, iv, 3 mg/kg, individual mice, read-out: C0
  C0: 2.57 µg/mL
[2]; [4]
  AUC(0-inf): 0.258 µg·h/mL
  AUC(0-t): 0.255 µg·h/mL
  half-life: 88.8 min
[2]; CD1, mouse, plasma, iv, 3 mg/kg, mean, read-out: C0
  C0: 2.57 µg/mL
[2]; CD1, mouse, plasma, iv, 3 mg/kg, mean, read-out: MRTInf —obs
  MRT inf: 17.2 min
[2]; CD1, mouse, plasma, iv, 3 mg/kg, mean, read-out: Vss —obs
  Vd: 3.26 L/kg
[2]; individual mice
  AUCInf: 0.301 µg·h/mL and 0.206 µg·h/mL
  AUClast: 0.298 µg·h/mL and 0.205 µg·h/mL
  AUC—% Extrap_obs: 1.59% and 1.03% and 0.662%
  C0: 3.016 µg/mL and 2.115 µg/mL
  Cl_obs: 11.2 L/h/kg and 9.96 L/h/kg and 14.5 L/h/kg
  MRTInf —obs: 30.1 min and 13.8 min and 7.68 min
  T1/2: 163 min and 76.2 min and 26.5 min
  Vss —obs: 5.63 L/kg and 2.29 L/kg and 1.87 L/kg
[2]; mean
  AUClast/D: 85.1 kg·ng·h/mL/mg
  AUC—% Extrap_obs: 1.09%
  Cl_obs: 11.9 L/h/kg

Source: patent US20250296929A1, “NOVEL HEPATOSELECTIVE POLYADENYLATING POLYMERASES INHIBITORS AND THEIR METHOD OF USE” (BARUCH S. BLUMBERG INSTITUTE, priority 2021, published 2025)
